These results are taken from patent US20160287563A1, “Cysteine Prodrugs” (Promentis Pharmaceuticals, Inc., priority 2011, published 2016).

A short description of experiment [1]: Tissue glutathione in the MAM neurodevelopmental model of schizophrenia. It is filed as in vivo. The settings on record: rats in the MAM neurodevelopmental model (MAM 22 mg/kg IP on gestational day 17). How it is done:
(§1) This approach would have the added benefit of allowing assessing the impact of the compounds on cognitive changes that are thought to be relevant to schizophrenia. Thus, one would be able to test the hypothesis that the conditions that normalize glutathione are also conditions that are expected to improve cognitive performance.
Timed pregnant Sprauge-Dawley rats are given an acute injection of methylazoxymethanol (MAM; 22 mg/kg, IP) or vehicle on gestational day 17. Following vaginal birth, all mothers and offspring are left undisturbed until weaning on postnatal day 22.

The subject of experiment [2] is MAM-treated rats. As to the kind of experiment: Attentional Set Shifting in MAM-treated rats. It is filed as in vivo.
From the text: as §1
Seven days prior to testing the animals will be food deprived to 85% of their free-feeding weight. Rats will be trained and tested on a four-arm cross maze (60×20×12 inches), constructed from Plexiglas with a removable arm to form a “T” configuration. On the first habituation day, the rat will be allowed to explore and consume up to 20 sugar pellets for 15 minutes. On the second day, the maze will be baited with 12 pellets for 15 minutes. On subsequent days, only one pellet will be placed at the end of each arm. This procedure will be continued daily until the rat consumes 16 sugar pellets in 15 minutes. Once achieved, the turn bias will be determined by forming a “T” configuration with the removable arm. A black-and-white piece of laminated paper for a visual cue will be placed on the floor in one of the arms. One pellet will be placed in each food well of the “T” arms. The rat will then be placed in the stem arm and allowed to choose between the two arms. […]

Experiment [3] deals with cultured cells. As to the kind of experiment: Glutathione levels in cultured cells exposed to oxidative stress agents. It is filed as cell-based. The settings on record: iron 0-120 min exposure to 0-100 microM; ethacrynic acid 0-30 min exposure to 0-10 microM.
From the text: First, the experiment described in part 1A is repeated, except the harvested tissue is exposed to agents that induce oxidative stress which would prompt the cells to use/increase the synthesis of glutathione (the details are provided below).

`C[N+]([O-])=NCO` [MAM, methylazoxymethanol]: the “tissue levels of glutathione” value in experiment [1] is “modest reduction in tissue levels of glutathione”. As for `CC(=O)N[C@@H](CS)C(=O)O` [NAC, N-acetyl cysteine], the “Attentional Set Shifting deficit” value in experiment [2] is listed as “can be restored”.

Take `C=C(CC)C(=O)c1ccc(OCC(=O)O)c(Cl)c1Cl` [ethacrynic acid]: in experiment [3], the “tissue levels of glutathione in cultured cells” value is recorded as “decrease tissue levels of glutathione”. Take `[Fe]` [iron]: the “tissue levels of glutathione in cultured cells” value in experiment [3] is recorded as “decrease tissue levels of glutathione”.
